From PubChem BioAssay AID282 (DTP/NCI, 2004)
Values joined by “and” are separate entries in the source; they are usually repeats but may differ in a detail not shown here. Equal values may be shown once. Toxic doses and inconclusive results are not listed. Rule for the calls: active = survival T/C of 150% or more; inactive = T/C below 125% in these data.

Test system: BDF1 mice, L1210 terephthalanilide-resistant leukemia ip, survival T/C
Test: NCI In Vivo Anticancer Drug Screen. Data for tumor model L1210 Leukemia resistant to A Terephthalanilide; NSC 38280 (intraperitoneal) in B6D2F1 (BDF1) mice
Settings: endpoint: mean survival time, higher = longer survival
Method: The antitumor activity of compounds was measured in mice bearing transplantable tumors. Survival or tumor size were measured and the results are expressed as the measurement made in the treated group (T) divided by the measurement made in the vehicle treated control group (C). The tumor model used in this assay is L1210 Leukemia resistant to A Terephthalanilide; NSC 38280 (intraperitoneal) in B6D2F1 (BDF1) mice

[1] = dose: 125.0 mg/kg/injection, schedule: Q01DX010 (ip), vehicle: saline
[2] = dose: 125.0 mg/kg/injection, schedule: Q01DX Z (ip), vehicle: saline
[3] = dose: 250.0 mg/kg/injection, schedule: Q01DX010 (ip), vehicle: saline
[4] = dose: 250.0 mg/kg/injection, schedule: Q01DX Z (ip), vehicle: saline
[5] = dose: 375.0 mg/kg/injection, schedule: Q01DX Z (ip), vehicle: saline
[6] = dose: 500.0 mg/kg/injection, schedule: Q01DX010 (ip), vehicle: saline
[7] = dose: 500.0 mg/kg/injection, schedule: Q01DX Z (ip), vehicle: saline
[8] = dose: 50.0 mg/kg/injection, schedule: Q01DX Z (ip), vehicle: saline
[9] = dose: 100.0 mg/kg/injection, schedule: Q01DX Z (ip), vehicle: saline
[10] = dose: 1000.0 mg/kg/injection, schedule: Q01DX Z (ip), vehicle: saline
[11] = dose: 750.0 mg/kg/injection, schedule: Q01DX Z (ip), vehicle: saline

Measured: T/C

C=CC(CN1CC1)OC(C)=O (stereo not drawn)
inactive: dose: 2.0 mg/kg/injection, schedule: Q01DX010 (ip), vehicle: saline 101 % of control | dose: 4.0 mg/kg/injection, schedule: Q01DX010 (ip), vehicle: saline 119 % of control | dose: 16.0 mg/kg/injection, schedule: Q01DX010 (ip), vehicle: saline 114 % of control

Nc1nc(N)c2nc(CNc3ccc(C(=O)NC(CCC(=O)O)C(=O)O)cc3)cnc2n1 (stereo not drawn)
inactive: dose: 0.03 mg/kg/injection, schedule: Q01DX010 (ip), vehicle: other 99 % of control and 109 % of control | dose: 0.05 mg/kg/injection, schedule: Q01DX010 (ip), vehicle: other 123 % of control and 101 % of control | dose: 0.1 mg/kg/injection, schedule: Q01DX010 (ip), vehicle: other 122 % of control and 124 % of control

O=CN(O)CC(=O)O
inactive: [1] 93 % of control | [2] 100 % of control | [3] 93 % of control | [4] 91 % of control | [5] 101 % of control | [6] 101 % of control | [7] 97 % of control

C[C@@H]1C[C@H]2CC[C@H](O2)[C@H](C)C(=O)O[C@@H](C)C[C@@H]2CC[C@@H](O2)[C@@H](C)C(=O)O[C@H](C)C[C@H]2CC[C@H](O2)[C@H](C)C(=O)O[C@@H](C)C[C@@H]2CC[C@@H](O2)[C@@H](C)C(=O)O1
inactive: dose: 45.0 mg/kg/injection, schedule: Q01DX Z (ip), vehicle: carboxymethylcellulose (CMC) 92 % of control | dose: 90.0 mg/kg/injection, schedule: Q01DX Z (ip), vehicle: carboxymethylcellulose (CMC) 95 % of control | dose: 180.0 mg/kg/injection, schedule: Q01DX Z (ip), vehicle: carboxymethylcellulose (CMC) 104 % of control | dose: 360.0 mg/kg/injection, schedule: Q01DX Z (ip), vehicle: carboxymethylcellulose (CMC) 108 % of control

CCOC(N)=O
inactive: [8] 107 % of control | [9] 93 % of control | [1] 100 % of control and 103 % of control | dose: 200.0 mg/kg/injection, schedule: Q01DX Z (ip), vehicle: saline 106 % of control | [3] 100 % of control and 103 % of control | dose: 400.0 mg/kg/injection, schedule: Q01DX Z (ip), vehicle: saline 106 % of control | [6] 99 % of control and 101 % of control | [7] 96 % of control | [10] 91 % of control

CC(=O)N(C)C
inactive: dose: 62.5 mg/kg/injection, schedule: Q01DX010 (ip), vehicle: saline 94 % of control and 105 % of control | [1] 92 % of control and 97 % of control | [2] 108 % of control | [3] 90 % of control and 96 % of control | [4] 112 % of control | [6] 96 % of control and 105 % of control | [7] 110 % of control | [11] 114 % of control

O=C(Nc1ccc(C2=NCCN2)cc1)c1ccc(C(=O)Nc2ccc(C3=NCCN3)cc2)c(F)c1
inactive: dose: 22.5 mg/kg/injection, schedule: Q01DX010 (ip), vehicle: saline 100 % of control and 101 % of control | dose: 45.0 mg/kg/injection, schedule: Q01DX010 (ip), vehicle: saline 101 % of control and 102 % of control | dose: 90.0 mg/kg/injection, schedule: Q01DX010 (ip), vehicle: saline 103 % of control and 106 % of control | dose: 180.0 mg/kg/injection, schedule: Q01DX010 (ip), vehicle: saline 100 % of control

O=c1cnn(C2OC(CO)C(O)C2O)c(=O)[nH]1 (stereo not drawn)
inactive: dose: 1600.0 mg/kg/injection, schedule: Q01DX010 (ip), vehicle: saline 86 % of control
active: [8] 172 % of control | [9] 164 % of control | dose: 187.0 mg/kg/injection, schedule: Q01DX Z (ip), vehicle: saline 181 % of control | [4] 224 % of control | [5] 218 % of control | [7] 225 % of control | [11] 222 % of control | dose: 800.0 mg/kg/injection, schedule: Q01DX010 (ip), vehicle: saline 167 % of control | [10] 182 % of control
